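Protocol summary: plate cells (96-well), add compound at 5 concentrations, incubate 48 h, interpolate endpoints linearly. Here, GI50 denotes the concentration required for 50% inhibition of growth. TGI: concentration producing complete growth inhibition.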 Where only a bound is given, the exact number is not on record here.

Among the test systems are CAKI-1 renal; HT29 colon; OVCAR-8 ovarian; IGROV1 ovarian; MDA-MB-231 breast; SNB-19 CNS; MDA-MB-435; MCF7 breast; NCI-H23 lung; SF-539 CNS.
Common to all, as to assay: NCI tumour cell line growth inhibition, 48 h

Turning to `O=C(Nc1cccc(-n2cc(-c3ccncc3)c(-c3cc(O)cc(Cl)c3)n2)c1)c1ccc(N2CCOCC2)c(C(F)(F)F)c1`, the GI50 in the test on CAKI-1 renal was 1100 nM; in the test on HT29 colon it was 3030 nM; with OVCAR-8 ovarian it was 1640 nM; in the test with IGROV1 ovarian it was 5120 nM; in the test with MDA-MB-231 breast, 327 nM; with SNB-19 CNS, 3330 nM. In addition, the GI50 is 2050 nM in the test with MDA-MB-435, 4160 nM with MCF7 breast, 3650 nM with NCI-H23 lung and 1440 nM in the test with SF-539 CNS. The TGI in the test with CAKI-1 renal is 6000 nM; with HT29 colon it was 11300 nM; in the test with OVCAR-8 ovarian it was greater than 100000 nM; with IGROV1 ovarian, greater than 100000 nM; with MDA-MB-231 breast it was 1660 nM; in the test with SNB-19 CNS it was 33600 nM. For the same compound, the TGI was greater than 100000 nM in the test on MDA-MB-435, greater than 100000 nM with MCF7 breast, 38800 nM in the test with NCI-H23 lung and 4470 nM in the test on SF-539 CNS.
In the case of `C[C@]12CC[C@H]3[C@@H](CCC4=CC(=O)CC[C@@]43C)[C@@H]1CC[C@@H]2c1csc(N)n1`, the GI50 in the test with CAKI-1 renal was 1410 nM; with HT29 colon, 4410 nM; in the test with OVCAR-8 ovarian, 3420 nM; in the test with IGROV1 ovarian, 4980 nM; in the test with MDA-MB-231 breast, 8820 nM; with SNB-19 CNS, 10200 nM. For the same compound, the GI50 was 2630 nM in the test with MDA-MB-435, 3420 nM in the test on MCF7 breast, 2850 nM with NCI-H23 lung and 9200 nM with SF-539 CNS. Besides, the TGI in the test with CAKI-1 renal is 13400 nM; in the test on HT29 colon it was 18300 nM; in the test with OVCAR-8 ovarian, 26700 nM; with IGROV1 ovarian, 20600 nM; in the test with MDA-MB-231 breast, 28700 nM; in the test on SNB-19 CNS it was 31200 nM. Further, the TGI was 10600 nM in the test with MDA-MB-435, 15500 nM with MCF7 breast, 19900 nM in the test on NCI-H23 lung and 27000 nM with SF-539 CNS.
As to `CCN=c1sc2c(n1NC(=O)c1cc3ccc1CCc1ccc(cc1)CC3)C(=O)c1ccccc1C2=O`, the GI50 in the test with CAKI-1 renal is 496 nM; in the test with HT29 colon it was 1400 nM; in the test with OVCAR-8 ovarian, 594 nM; in the test with IGROV1 ovarian, 449 nM; in the test with MDA-MB-231 breast it was 658 nM; in the test on SNB-19 CNS, 605 nM. Moreover, the GI50 is 601 nM with MDA-MB-435, 592 nM with MCF7 breast, 589 nM in the test with NCI-H23 lung and 556 nM with SF-539 CNS. Moreover, the TGI with CAKI-1 renal is 2860 nM; in the test with HT29 colon it was 19200 nM; in the test with OVCAR-8 ovarian, 1350 nM; in the test with IGROV1 ovarian it was 1310 nM; with MDA-MB-231 breast it was 2720 nM; in the test on SNB-19 CNS, 1330 nM. Also, the TGI in the test with MDA-MB-435 was 1090 nM; in the test with MCF7 breast, 1300 nM; in the test with NCI-H23 lung it was 1640 nM; with SF-539 CNS, 1040 nM.
With `CN[C@@H](C)C(=O)N[C@H]1CN(S(=O)(=O)c2cccc(S(=O)(=O)N3CC[C@H]4CC[C@@H](C(=O)NC(c5ccccc5)c5ccccc5)N4C(=O)[C@@H](NC(=O)[C@H](C)NC)C3)c2)CC[C@H]2CC[C@@H](C(=O)NC(c3ccccc3)c3ccccc3)N2C1=O`, the GI50 in the test with CAKI-1 renal is 58400 nM; with HT29 colon, 20700 nM; with OVCAR-8 ovarian, 5640 nM; with IGROV1 ovarian, 21000 nM; in the test with MDA-MB-231 breast, less than 15.7 nM; in the test on SNB-19 CNS it was 21200 nM. For the same compound, the GI50 in the test with MDA-MB-435 is 1890 nM; in the test on MCF7 breast it was 6930 nM; with NCI-H23 lung it was 1090 nM; with SF-539 CNS, less than 10 nM. Also, the TGI with CAKI-1 renal is greater than 100000 nM; with HT29 colon it was greater than 48300 nM; in the test on OVCAR-8 ovarian, 26800 nM; with IGROV1 ovarian it was 44500 nM; in the test with SNB-19 CNS, 43600 nM; in the test with MDA-MB-435, 21600 nM. Moreover, the results for the TGI in the test on MCF7 breast, in the test with NCI-H23 lung and with SF-539 CNS were 29200 nM, 17900 nM and 509 nM, respectively.
Regarding `O=C1Oc2ccccc2C(=O)/C1=C1/C=C(c2ccccc2)SS1`, the TGI in the test on CAKI-1 renal, with HT29 colon, with OVCAR-8 ovarian, with IGROV1 ovarian, in the test on MDA-MB-231 breast and in the test with SNB-19 CNS was greater than 100000 nM throughout. Further, the TGI with MDA-MB-435, in the test on MCF7 breast, in the test with NCI-H23 lung and with SF-539 CNS was greater than 100000 nM each time.
Turning to `CCN(CC)CCCNc1ccc(C)c2sc3ccccc3c(=O)c12`, the GI50 in the test on CAKI-1 renal was 1290 nM; with HT29 colon it was 279 nM; in the test with OVCAR-8 ovarian, 1410 nM; in the test with IGROV1 ovarian it was 1220 nM; with MDA-MB-231 breast it was 294 nM; in the test on SNB-19 CNS, 1030 nM. Also, the GI50 in the test on MDA-MB-435 was 210 nM; in the test on MCF7 breast it was 277 nM; in the test with NCI-H23 lung, 1750 nM; with SF-539 CNS, 1300 nM. Besides, the TGI amounted to 3060 nM with CAKI-1 renal; 1090 nM with HT29 colon; 3260 nM with OVCAR-8 ovarian; 2920 nM in the test with IGROV1 ovarian; 863 nM with MDA-MB-231 breast; 2710 nM in the test on SNB-19 CNS. In addition, the TGI came out at 451 nM in the test on MDA-MB-435, 1050 nM in the test with MCF7 breast, 5040 nM in the test on NCI-H23 lung and 2810 nM in the test with SF-539 CNS.
Take `OC1(c2ccc(Cl)c(C(F)(F)F)c2)CCN(CCCC(c2ccc(F)cc2)c2ccc(F)cc2)CC1`: the GI50 was 922 nM with CAKI-1 renal; 739 nM with HT29 colon; 823 nM in the test with OVCAR-8 ovarian; 975 nM in the test on IGROV1 ovarian; 795 nM with MDA-MB-231 breast; 1130 nM in the test with SNB-19 CNS. Besides, the GI50 was 819 nM in the test on MDA-MB-435, 796 nM in the test with MCF7 breast, 830 nM in the test on NCI-H23 lung and 943 nM in the test with SF-539 CNS. In addition, the TGI was 1900 nM in the test on CAKI-1 renal; 1470 nM with HT29 colon; 1530 nM in the test with OVCAR-8 ovarian; 2050 nM in the test on IGROV1 ovarian; 1520 nM in the test on MDA-MB-231 breast; 3860 nM in the test with SNB-19 CNS. The TGI with MDA-MB-435 is 1530 nM; in the test on MCF7 breast, 1470 nM; in the test with NCI-H23 lung it was 1620 nM; in the test with SF-539 CNS, 1690 nM.
On to `COCC([C@@H](O)C(O)C(=O)NCC[C@@H](C)c1nc(/C=C/CC2OC3(C[C@H](O)C2C)OC(C(C[C@H](O)C(C)[C@H](O)C(C)/C=C(C)/C(C)=C/C=C/C(C)=C/C#N)OC)[C@@H](OP(=O)(O)O)C3(C)C)co1)N(C)C` (some centres undefined), for which the TGI with CAKI-1 renal is 0.325 nM; in the test on HT29 colon, 0.297 nM; in the test with OVCAR-8 ovarian it was 0.423 nM; in the test on IGROV1 ovarian it was 0.296 nM; in the test on MDA-MB-231 breast it was 0.562 nM; with SNB-19 CNS it was 0.343 nM. The TGI was determined as 0.336 nM in the test with MDA-MB-435, 0.347 nM in the test with MCF7 breast, 2.1 nM in the test on NCI-H23 lung and 0.34 nM with SF-539 CNS.

For the origin of these results see PubChem BioAssay (NCI).
